Data reported in publication PMC8724172, “The effect of potent CYP2D6 inhibition on the pharmacokinetics and safety of deutetrabenazine in healthy volunteers” (European Journal of Clinical Pharmacology, 2021).

Legend:
[1] = Safety assessments (adverse events, ECG, C-SSRS) in the drug-drug interaction study
Procedure: Subjects checked into the clinic on day 1 and were confined through day 14. […] Subjects then received paroxetine on days 4 to 12 to achieve steady-state plasma concentrations of paroxetine by day 11. On day 11, another single dose of deutetrabenazine was administered. Triplicate 12-lead digital electrocardiograms (ECGs) were collected predose and for 10 h following deutetrabenazine dosing on day 1, and for 10 h on day 11, following paroxetine administration on day 10. […] Blood and urine samples were collected for clinical laboratory testing (hematology, serum chemistries, and urinalysis) at admission and after at least 10 h fasting and at study completion on day 14 or upon early withdrawal.

[2] = Open-label sequential drug-drug interaction study: plasma pharmacokinetics of deutetrabenazine and its metabolites without and with steady-state paroxetine; details: for % Ratio of LS means (90% CI) (day 11)/(day 1), AUC0−t / % Ratio of LS means (90% CI) (day 11)/(day 1), AUC0−∞ / % Ratio of LS means (90% CI) (day 11)/(day 1), Cmax: deutetrabenazine + paroxetine vs deutetrabenazine alone; for Increase of half-life (t1/2) in presence of paroxetine / Increase of AUC0–∞ in presence of paroxetine / Increase of Cmax in presence of paroxetine: deutetrabenazine 22.5 mg; for Increase of half-life (t1/2) in presence of paroxetine: steady-state paroxetine vs alone; for Increase of AUC0–∞ in presence of paroxetine / Increase of Cmax in presence of paroxetine: population of 15 EM and 8 IM, steady-state paroxetine 20 mg daily vs alone
Source text: This was an open-label sequential drug-drug interaction study in 24 healthy adult subjects who were CYP2D6 extensive metabolizers (EM) or CYP2D6 intermediate metabolizers (IM); Supplemental Table S1 provides the genotypes and phenotypes of the subjects.
Subjects checked into the clinic on day 1 and were confined through day 14. […] Those who met inclusion/exclusion criteria received a single dose of deutetrabenazine on day 1 followed by a 72-h washout. Subjects then received paroxetine on days 4 to 12 to achieve steady-state plasma concentrations of paroxetine by day 11. On day 11, another single dose of deutetrabenazine was administered. Triplicate 12-lead digital electrocardiograms (ECGs) were collected predose and for 10 h following deutetrabenazine dosing on day 1, and for 10 h on day 11, following paroxetine administration on day 10. Blood samples for measurement of plasma concentrations of deutetrabenazine and its metabolites were obtained on days 1 and 11 (predose, 1, 2, 2.5, 3, 3.5, 4, 4.5, 5, 6, 7, 8, 10, 12, and 16 h), days 2 and 12, at 24 and 36 h, days 3 and 13, at 48 and 60 h and days 4 and 14, at 72 h. Paroxetine trough levels were obtained pre-dose on days 9, 10, 11, and 12, and on day 13 at 24 h post the final paroxetine dose on day 12. Blood and urine samples were collected for clinical laboratory testing (hematology, serum chemistries, and urinalysis) at admission and after at least 10 h fasting and at study completion on day 14 or upon early withdrawal.
All participants received the following treatments, deutetrabenazine 22.5-mg oral dose as one 15-mg tablet + one 7.5-mg tablet on days 1 and 11 and one paroxetine 20 mg (Cadila Healthcare Ltd.) oral tablet on days 4 through 12. The deutetrabenazine 22.5-mg dose was administered with 237 mL of water in the morning approximately 30 min after a standardized breakfast meal with moderate fat content (35%). No food was allowed for at least 4 h postdose, and subjects were asked to remain upright for at least 4 h postdose, unless medically necessary.
Paroxetine 20 mg was administered in the morning with 237 mL water for 9 days (days 4 to 12) to ensure steady-state levels. On days 4 to 10 and 12, the paroxetine dose was administered in a fed state 30 min after breakfast. On day 11, as paroxetine can be administered without regard to food, subjects took the paroxetine dose under fasting conditions (at least 1 h prior to breakfast and 1.5 h prior to deutetrabenazine administration) following an overnight fast of at least 10 h. Subjects were asked to remain upright for at least 1 h after the paroxetine dose, unless medically necessary.
Validated liquid chromatography/tandem mass spectrometry methods were applied to assess plasma concentrations of paroxetine, deutetrabenazine, α- and β-HTBZ metabolites, and the O-desmethyl metabolites of α- and β-HTBZ. This was performed on a Sciex API 4000 instrument, equipped with a Turbo Ion Spray ion source operated in the positive ion mode and interfaced to a Shimadzu HPLC system fitted with a Waters XBridge C18 reverse phase column (3.5 µm; 50 × 2.1 mm) for paroxetine, deutetrabenazine, α-HTBZ and β-HTBZ or a Phenomenex Kinetex column (2.6 µm; 100 × 2.1 mm) for the O-desmethyl metabolites. The validated assay ranges were as follows: paroxetine 0.500 to 50.0 ng/mL, deutetrabenazine 0.100 to 10.0 ng/mL, deuterated α- and β-HTBZ 0.500 to 100 ng/mL, and 9-O- and 10-O-desmethyl metabolites of α-HTBZ and β-HTBZ 0.5 to 50.0 ng/mL. The methods were developed and validated by CPR Pharma Services, Pty, Ltd Australia, as described earlier.
Plasma concentrations, below the limit of quantitation (BLQ) of the assay, were designated a value of zero for initial and time points occurring at the end of the profile. For sampling time points between two quantifiable concentrations, plasma concentrations BLQ followed by a measurable concentration were set to the limit of quantitation of the assay.

[3] = cited from earlier work; for Increase in exposure with paroxetine: after tetrabenazine administration
[4] = adverse events by treatment period, 24 subjects dosed
[5] = paroxetine administered with tetrabenazine
[6] = Subjects with EM phenotype (n = 15)
[7] = Subjects with IM phenotype (n = 8)

[2H]C([2H])([2H])Oc1cc2c(cc1OC([2H])([2H])[2H])C1CC(=O)C(CC(C)C)CN1CC2 (centres unmarked) [Deutetrabenazine]
Back pain [1, 4]: 0 (0%) n (%)
Chest discomfort [1, 4]: 0 (0%) n (%)
Decreased appetite [1, 4]: 0 (0%) n (%)
Dizziness [1, 4]: 1 (4%) n (%)
Feeling abnormal [1, 4]: 0 (0%) n (%)
Feeling hot [1, 4]: 0 (0%) n (%)
Gastrointestinal Disorders [1, 4]: 0 (0%) n (%)
General Disorders and Administration Site Conditions [1, 4]: 0 (0%) n (%)
Gingival pain [1, 4]: 0 (0%) n (%)
Headache [1, 4]: 0 (0%) n (%)
Hypoaethesia oral [1, 4]: 0 (%) n (%)
Local swelling [1, 4]: 0 (0%) n (%)
Metabolism and Nutritional disorders [1, 4]: 0 (0%) n (%)
Muscle tightness [1, 4]: 0 (0%) n (%)
Musculoskeletal and Connective Tissue Disorders [1, 4]: 0 (0%) n (%)
Nausea [1, 4]: 0 (0%) n (%)
Nervous System Disorders [1, 4]: 1 (4%) n (%)
Paraesthesia oral [1, 4]: 0 (0%) n (%)
Sensation of foreign body [1, 4]: 0 (0%) n (%)
Sensation of heaviness [1, 4]: 0 (0%) n (%)
Swollen tongue [1, 4]: 0 (0%) n (%)
Vomiting [1, 4]: 0 (0%) n (%)
Subjects with AEs, n (%) ([1]; by treatment period, 24 subjects dosed): 3 (13%) n (%)
Infections and Infestations ([1]; in vivo): 0 (0%) n (%)
Viral Infections ([1]; in vivo): 0 (0%) n (%)
Safety and tolerability ([1]; single doses of 22.5 mg, alone or in the presence of steady-state paroxetine (20 mg daily), healthy subjects): safe and generally well tolerated
Mean plasma concentrations in the presence and absence of paroxetine ([2]; deutetrabenazine 22.5 mg oral, day 11 vs day 1): comparable
Cmax ([2]; human, in vivo): 0.3 (44) ng/mL
Tmax ([2]; human, in vivo): 3.5 (1.0–6.0) h
AUC0-t ([2]; human, in vivo, im): 1.0 (55) ng × h/mL
Cmax ([2]; human, in vivo, im): 0.5 (66) ng/mL
Tmax ([2]; human, in vivo, im): 3.5 (1.0–6.0) h
Cmax ([2]; human, in vivo, po, 22.5 mg): 0.4 (60) ng/mL

Fc1ccc([C@@H]2CCNC[C@H]2COc2ccc3c(c2)OCO3)cc1 [Paroxetine, reference compound]
Back pain [1, 4]: 1 (4%) n (%)
Chest discomfort [1, 4]: 1 (4%) n (%)
Decreased appetite [1, 4]: 3 (13%) n (%)
Dizziness [1, 4]: 1 (4%) n (%)
Feeling abnormal [1, 4]: 1 (4%) n (%)
Feeling hot [1, 4]: 1 (4%) n (%)
Gastrointestinal Disorders [1, 4]: 5 (21%) n (%)
General Disorders and Administration Site Conditions [1, 4]: 5 (21%) n (%)
Gingival pain [1, 4]: 1 (4%) n (%)
Headache [1, 4]: 5 (21%) n (%)
Hypoaethesia oral [1, 4]: 1 (4%) n (%)
Infections and Infestations [1, 4]: 1 (4%) n (%)
Local swelling [1, 4]: 1 (4%) n (%)
Metabolism and Nutritional disorders [1, 4]: 3 (13%) n (%)
Muscle tightness [1, 4]: 1 (4%) n (%)
Nervous System Disorders [1, 4]: 7 (29%) n (%)
Paraesthesia oral [1, 4]: 1 (4%) n (%)
Sensation of foreign body [1, 4]: 1 (4%) n (%)
Sensation of heaviness [1, 4]: 0 (0%) n (%)
Viral Infections [1, 4]: 1 (4%) n (%)
Headache, subjects reporting ([1]; most common AE, reported 8 times by 7 subjects overall): 5 subjects
Steady-state exposure (mean trough plasma concentrations, visual inspection) ([2]; paroxetine 20 mg oral daily on days 4–12): achieved on day 10

COc1cc2c(cc1OC)[C@@H]1C[C@H](O)[C@@H](CC(C)C)CN1CC2 [α-HTBZ]
Increase in exposure with paroxetine [3]: threefold
Increase of Cmax with paroxetine [3, 5]: 1.3 fold
% Ratio of LS means (90% CI) (day 11)/(day 1), AUC0−t ([2]; All subjects (n = 23)): 163.3 (148.3–179.8) %
% Ratio of LS means (90% CI) (day 11)/(day 1), AUC0−∞ ([2]; All subjects (n = 23)): 169.8 (153.8–187.5) %
% Ratio of LS means (90% CI) (day 11)/(day 1), Cmax ([2]; All subjects (n = 23)): 106.3 (90.0–125.4) %
% Ratio of LS means (90% CI) (day 11)/(day 1), AUC0−t [2, 6]: 181.6 (162.4–302.0) %
% Ratio of LS means (90% CI) (day 11)/(day 1), AUC0−∞ [2, 6]: 185.0 (165.8–206.4) %
% Ratio of LS means (90% CI) (day 11)/(day 1), Cmax [2, 6]: 119.9 (108.1–132.9) %
% Ratio of LS means (90% CI) (day 11)/(day 1), AUC0−t [2, 7]: 192.2 (162.9–226.8) %
% Ratio of LS means (90% CI) (day 11)/(day 1), AUC0−∞ [2, 7]: 193.6 (164.4–228.0) %
% Ratio of LS means (90% CI) (day 11)/(day 1), Cmax [2, 7]: 127.8 (111.8–146.1) %
Increase of half-life (t1/2) in presence of paroxetine [2]: 1.5 fold
Cmax ([2]; human, in vivo): 35.8 (21) ng/mL
AUC0–∞ ([2]; human, in vivo, im): 546 (22) ng × h/mL
Cmax ([2]; human, in vivo, im): 40.5 (22) ng/mL
Tmax ([2]; human, in vivo, im): 4.0 (2.0–7.0) h
t1/2 ([2]; human, in vivo, im): 13.0 (23) h
Cmax ([2]; human, in vivo, po, 22.5 mg): 37.4 (22) ng/mL
Increase of AUC0–∞ in presence of paroxetine [2]: 1.8 fold
Increase of Cmax in presence of paroxetine [2]: 1.2 fold

COc1cc2c(cc1OC)[C@H]1C[C@H](O)[C@H](CC(C)C)CN1CC2 [β-HTBZ]
Increase in exposure with paroxetine [3]: ninefold
Increase of AUC with paroxetine [3, 5]: ninefold
% Ratio of LS means (90% CI) (day 11)/(day 1), AUC0−t ([2]; All subjects (n = 23)): 484.7 (355.2–661.5) %
% Ratio of LS means (90% CI) (day 11)/(day 1), AUC0−∞ ([2]; All subjects (n = 23)): 520.6 (388.9–697.0) %
% Ratio of LS means (90% CI) (day 11)/(day 1), Cmax ([2]; All subjects (n = 23)): 154.3 (126.0–189.0) %
% Ratio of LS means (90% CI) (day 11)/(day 1), AUC0−t [2, 6]: 641.3 (537.3–765.4) %
% Ratio of LS means (90% CI) (day 11)/(day 1), AUC0−∞ [2, 6]: 649.9 (549.6–768.5) %
% Ratio of LS means (90% CI) (day 11)/(day 1), Cmax [2, 6]: 216.4 (185.0–253.2) %
% Ratio of LS means (90% CI) (day 11)/(day 1), AUC0−t [2, 7]: 744.6 (605.3–915.8) %
% Ratio of LS means (90% CI) (day 11)/(day 1), AUC0−∞ [2, 7]: 731.5 (595.0–899.3) %
% Ratio of LS means (90% CI) (day 11)/(day 1), Cmax [2, 7]: 259.2 (216.7–310.1) %
Increase of half-life (t1/2) in presence of paroxetine [2]: 2.7 fold
Cmax ([2]; human, in vivo): 20.4 (33) ng/mL
AUC0–∞ ([2]; human, in vivo, im): 333 (75) ng × h/mL
Cmax ([2]; human, in vivo, im): 32.6 (22) ng/mL
Tmax ([2]; human, in vivo, im): 4.0 (2.0–8.0) h
t1/2 ([2]; human, in vivo, im): 7.9 (50) h
Cmax ([2]; human, in vivo, po, 22.5 mg): 24.6 (38) ng/mL
Increase of AUC0–∞ in presence of paroxetine [2]: 5.6 fold
Increase of Cmax in presence of paroxetine [2]: 2.1 fold
